Measurements published in patent publication US9539322B2, “Method of enhancing an antitumor T cell response by administering an anti-IL-6 receptor antibody” (National University Corporation Hokkaido University, priority 2010, dated 2017).
Where a name gives a salt, the structure may show the parent alone.

Experiments:
[1] = system: CD8^+ cells; assay: Growth ability of spleen CD8+ cells after anti-CD3 stimulation (3H incorporation test), CMC-1 tumor-bearing mice; format: in vivo, BALB/c mice; settings: i.p. 30 days after CMC-1 inoculation (GEM; CY 60 mg/kg; 5-FU 120 mg/kg); spleen CD8+ cells after 48 hours; 60 hours immobilized anti-CD3 2 μg/ml; FIG. 3
Experimental: (§1) GEM was administered to the tumor-bearing mice 30 days after CMC-1 inoculation, and after 48 hours the absolute number of respective cell populations in the spleen were analyzed by flow cytometry. Cyclophosphamide (CY) (60 mg/kg), fluoro-5-uracil (5-FU) (120 mg/kg), or GEM was intraperitoneally administered to tumor-bearing mice 30 days after CMC-1 inoculation. After 48 hours, CD8^+ cells were isolated from the spleen, and the growth ability after 60 hours of stimulation with immobilized anti-CD3 antibody (2 μg/ml) was assessed by ^3H incorporation test.

[2] = system: immunosuppressive cells; assay: Flow cytometry of the absolute number of cell populations in the spleen of CMC-1 tumor-bearing mice; format: in vivo, BALB/c mice; settings: tumor-bearing mice 30 days after CMC-1 inoculation; 48 hours after administration; FIG. 2
Experimental: as §1

[3] = system: methylcholanthrene-induced squamous cancer CMC-1; assay: Antitumor effect of GEM in CMC-1-inoculated mice (tumor growth); format: in vivo; settings: CMC-1 intradermal in BALB/c mice; 120 mg/kg i.p. every week from day 5; FIG. 1
Experimental: Cell line of methylcholanthrene-induced squamous cancer CMC-1 (2×10^6 cells) was intradermally inoculated to BALB/c mice, and from day 5 after inoculation, GEM (Gemzar: gemcitabine hydrochloride) was intraperitoneally administered at 120 mg/kg every week. The tumor growth was measured every two days to evaluate the antitumor effect of GEM.

[4] = system: CD8^+ T cells; assay: Tumor diameter with GEM and anti-CD8 antibody (CMC-1); proportion of OVA-specific CD8+ cytotoxic T cells (LLC-OVA); format: in vivo, BALB/c mice; C57BL6 mice; settings: GEM 120 mg/kg i.p.; anti-CD8 antibody 250 μg i.v. every three days (CMC-1); OVA-specific CD8+ CTL in regional lymph nodes (LLC-OVA); FIG. 4, 5
Experimental: CMC-1 (2×10^6) was intradermally inoculated to BALB/c mice. From day 5 after inoculation, GEM (120 mg/kg) was intraperitoneally administered every week and anti-CD8 antibody (250 μg) was intravenously administered every three days. The tumor diameter was measured every two days. LLC-OVA (2×10^6) prepared by introducing the ovalbumin (OVA) gene into mouse lung cancer cell line LLC was intradermally inoculated to C57BL6 mice, and after five days GEM (120 mg/kg) was intraperitoneally administered. After nine days, the regional lymph nodes were collected and assessed by flow cytometry for the proportion of OVA-specific CD8^+ cytotoxic T cells.

Row | SMILES | growth-enhancing effect for CD8+ T cells [1] | elimination of immunosuppressive cells in the spleen [2] | tumor growth-suppressive effect [3] | antitumor effect through CD8+ T cell activity [4]
1 | O=c1[nH]cc(F)c(=O)[nH]1 [5-FU, fluoro-5-uracil] | not observed | – | – | –
2 | O=P1(N(CCCl)CCCl)NCCCO1 (stereo not drawn) [CY, Cyclophosphamide] | not observed | – | – | –
3 | Nc1ccn([C@@H]2O[C@H](CO)[C@@H](O)C2(F)F)c(=O)n1 [GEM, gemcitabine hydrochloride] | excellent growth-enhancing effect for CD8^+ T cells | eliminates immunosuppressive cells | tumor growth-suppressive effect | produces the antitumor effect by enhancing the activity of CD8^+ T cells
